Data set [1] concerns the target T1, CRF receptors (Homo sapiens, UniProt P34998).
T1 sequence (P34998 24-415): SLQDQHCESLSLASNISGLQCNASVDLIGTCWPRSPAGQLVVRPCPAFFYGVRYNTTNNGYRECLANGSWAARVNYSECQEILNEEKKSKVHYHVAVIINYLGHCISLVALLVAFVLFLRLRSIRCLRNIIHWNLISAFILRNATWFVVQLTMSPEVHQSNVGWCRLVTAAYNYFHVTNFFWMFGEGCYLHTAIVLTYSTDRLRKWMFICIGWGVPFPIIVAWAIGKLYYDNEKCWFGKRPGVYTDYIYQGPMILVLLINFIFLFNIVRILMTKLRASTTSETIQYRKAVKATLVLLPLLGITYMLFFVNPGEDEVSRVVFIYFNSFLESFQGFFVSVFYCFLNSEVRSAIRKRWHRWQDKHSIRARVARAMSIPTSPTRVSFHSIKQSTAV
Briefly: CRF receptor binding assay (125I-CRF displacement). To be noted: membrane preparation, 125I-CRF 100 pM, room temperature 2 hours. As to the method: Assay for CRF Receptor Binding Activity
CRF receptor binding was performed using a modified version of the assay described by Grigoriadis and De Souza (Biochemical, Pharmacological, and Autoradiographic Methods to Study Corticotropin-Releasing Factor Receptors. Methods in Neurosciences, Vol. 5, 1991). Membrane pellets containing CRF receptors were resuspended in 50 mM Tris buffer pH 7.7 containing 10 mM MgCl2 and 2 mM EGTA and centrifuged for 10 minutes at 48000 g. Membranes were washed again and brought to a final concentration of 1500 μg/ml in binding buffer (Tris buffer above with 0.1% BSA, 0.15 mM bacitracin and 0.01 mg/ml aprotinin.). For the binding assay, 100 ul of the membrane preparation was added to 96 well microtube plates containing 100 μl of ^125I-CRF (SA 2200 Ci/mmol, final concentration of 100 pM) and 50 μl of drug. Binding was carried out at room temperature for 2 hours. Plates were then harvested on a Brandel 96 well cell harvester and filters were counted for gamma emissions on a Wallac 1205 Betaplate liquid scintillation counter. Non specific binding was defined by 1 μM cold CRF. IC50 values were calculated with the non-linear curve fitting program RS/1 (BBN Software Products Corp., Cambridge, Mass.).

Each structure is given as a SMILES string. pIC50: −log10 of the molar value. Counter-ions that a name gives are not always drawn.

The melting point is the temperature of the solid-liquid transition. Molecule `CCCN(CC1CC1)c1ncnc2c(-c3c(C)cc(C)cc3C)cn(C)c12` (as salt: HCl) [Compound 1, N-cyclopropylmethyl-N-propyl-5-methyl-7-(2,4,6-trimethylphenyl)-5H-pyrrolo[3,2-d]pyrimidin-4-amine] gave a melting point of 205 to 207 °C.

As usually defined, the pIC50 is the IC50 on a negative log10 scale, so that one unit is a factor of ten. Consider `CCCN(CC1CC1)c1ncnc2c(-c3c(C)cc(C)cc3C)cn(C)c12` [Compound 1, N-cyclopropylmethyl-N-propyl-5-methyl-7-(2,4,6-trimethylphenyl)-5H-pyrrolo[3,2-d]pyrimidin-4-amine], for which the pIC50 in data set [1] was 6.96.

For the molecule `CCCN(CCC)c1ncnc2c(-c3c(C)cc(C)cc3C)cn(C)c12` [Compound 2, N,N-Dipropyl-5-methyl-7-(2,4,6trimethylphenyl)-5H-pyrrolo[3,2-d]pyrimidin-4-amine], the melting point is 116 to 118 °C.

For `CCCCN(CC)c1ncnc2c(-c3c(C)cc(C)cc3C)cn(C)c12` [Compound 5, N-Butyl-N-Ethyl-5-methyl-7-(2,4,6trimethylphenyl)-5H-pyrrolo[3,2-d]pyrimidin-4-amine], the melting point was 126 to 128 °C. Also, the negative-log IC50 (pIC50) in data set [1] is 6.30.

`Cc1cc(C)c(-c2cn(C)c3c(N4CCCCCC4)ncnc23)c(C)c1` [Compound 7, 4-(1-Homopiperidinyl)-5-methyl-7-(2,4,6-trimethylphenyl)-5H-pyrrolo[3,2-d]pyrimidine] had a melting point of 140 to 142 °C.

The values are drawn from patent publication US6495688B2, “Deazapurine derivatives: a new class of CRF1 specific ligands” (Neurogen Corporation, priority 1995, dated 2002).
